This is an account of results in PubChem BioAssay (NCI).

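Cultured in 96-well plates, cells were exposed to test compound for 48 hours across five concentrations. Abbreviation: GI50, concentration required for 50% inhibition of growth. TGI denotes the concentration required for complete inhibition of growth.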

For one assay, the system named is SK-MEL-28 melanoma. The experiment in a line: inhibition of tumour cell growth, NCI panel, 48 h.
Turning to `N#CC12C(=O)N=C(N)C1(C#N)C(c1ccco1)NC1=C2CCCC1` (configuration not stated), the TGI was above 100 µM.

Turning to `CCN(CC)CCN(C(=Nc1ccccc1)N1CCOCC1)c1ccccc1`, the TGI was above 100 µM.

A further assay relates to OVCAR-4 ovarian. The experiment in a line: inhibition of tumour cell growth, NCI panel, 48 h.
In turn, `CC1(C)CCCC2OC2CCC(C)(C)C1=O` (configuration not stated) gave a TGI above 100 µM.

In turn, `O=C1NCC2(CCN(CCCC3(c4ccc(F)cc4)OCCO3)CC2)N1c1ccccc1` returned a TGI above 100 µM.

As to `O=C1c2ccccc2-c2c1c(-c1ccc(F)cc1)nc1ccc3ccccc3c21`, the TGI was above 100 µM.

Consider `O=C(Nc1nccs1)c1c(O)nc2sccn2c1=O`, for which the TGI was above 10 µM.

Turning to `O=c1[nH]c(=O)n(C2OC(CO)C(O)C2O)c2nc(-c3ccc(-c4ccccc4)cc3)cnc12` (configuration not stated), the TGI is above 100 µM.

The compound `O=C1NCCN1/N=C/c1c(Cl)n(-c2ccccc2)c2ccccc12` yielded a TGI of 76.2 µM.

`N=C(N)SCc1ccc2c(c1)Sc1ccccc1O2`: the TGI was found to be 18.1 µM.

With `CO[C@H]1/C=C(/C)CCC[C@H](C)[C@H](O)[C@@H](C)C(=O)C(C)(C)[C@@H](O)CC(=O)O[C@@H]1/C(C)=C/c1csc(C)n1`, the GI50 is 0.071 µM and the TGI is above 100 µM.

`CCC1(CC)C(=O)NN(C(=O)c2ccccc2)C1=O` gave a TGI above 100 µM.

The compound `CC(=O)Nc1nc(C#N)[nH]c1C#N` displayed a TGI above 100 µM.

Compound `CS(=O)c1ncc2c(n1)-c1ccccc1OC2` (configuration not stated) yielded a TGI above 100 µM.

Regarding `CN(C)c1ccc(C(=N/N=C2\C(=O)Nc3ccccc32)c2ccc(N(C)C)cc2)cc1`, the TGI was above 32.6 µM.

Consider `CCCC(=O)OC1CC(n2cc(F)c(=O)[nH]c2=O)OC1COP(=O)(OCC(Cl)(Cl)Cl)OCC(Cl)(Cl)Cl` (configuration not stated), for which the TGI is above 100 µM.

Regarding `CC1=C[C@@H]2Cc3nc4cc(Cl)ccc4c(N)c3[C@H](C1)C2`, the TGI amounted to 18.2 µM.

The compound `O=[N+]([O-])C(/C=C(\Cl)n1nnc2ccccc21)=C(/Cl)n1nnc2ccccc21` showed a TGI above 100 µM.

`COc1ccc2c(C)cc(=O)oc2c1OC`: the TGI is above 100 µM.

In the case of `CN(C)c1ccc(S(=O)Nc2ccccc2)cc1` (configuration not stated), the TGI is above 100 µM.

As to `C=CCSc1nnc2cc(CN3CCCC3)c(-c3ccc(Cl)cc3)nn12`, the TGI is 48 µM.

Consider `Cc1cn(C2CC(O)C(CO)O2)c(=O)[nH]c1=O` (configuration not stated), for which the TGI is above 4640 µM.

As to `CSC(=S)N/N=C(\C)c1ccc(S(=O)(=O)N(C)c2ccccc2)cc1`, the TGI was above 100 µM.

In turn, `CCNC(=O)Cc1nc2c(N)ncnc2n1C1OC(CO)C(O)C1O` (configuration not stated) displayed a TGI above 100 µM.

The compound `Cc1nc(N)c(N2CCN([N+](=O)[O-])CC2)c(=O)[nH]1` gave a TGI above 100 µM.

Turning to `N#CC12C(=O)N=C(N)C1(C#N)C(c1ccco1)NC1=C2CCCC1` (configuration not stated), the TGI was above 100 µM.

On to `CCN(CC)CCN(C(=Nc1ccccc1)N1CCOCC1)c1ccccc1`, for which the TGI is above 100 µM.

Another assay deals with HCT-15 colon. Kind of assay: inhibition of tumour cell growth, NCI panel, 48 h.
`CC1(C)CCCC2OC2CCC(C)(C)C1=O` (configuration not stated) gave a TGI above 100 µM.

As for `O=C1NCC2(CCN(CCCC3(c4ccc(F)cc4)OCCO3)CC2)N1c1ccccc1`, the TGI was above 100 µM.

With `COc1ccc2c(c1)/C(=C\c1c(Cl)nc3sc(C)cn13)C(=O)N2`, the TGI worked out at 22.4 µM.

As for `O=C1c2ccccc2-c2c1c(-c1ccc(F)cc1)nc1ccc3ccccc3c21`, the TGI is above 100 µM.

On to `O=C(/C=C/c1ccc2c(c1)OCO2)CC(=O)C(=O)c1c[nH]c2ccccc12`, for which the TGI is above 100 µM.

For `O=C(Nc1nccs1)c1c(O)nc2sccn2c1=O`, the TGI was above 10 µM.

In the case of `O=c1[nH]c(=O)n(C2OC(CO)C(O)C2O)c2nc(-c3ccc(-c4ccccc4)cc3)cnc12` (configuration not stated), the TGI is above 100 µM.

On to `O=C1NCCN1/N=C/c1c(Cl)n(-c2ccccc2)c2ccccc12`, for which the TGI was determined as 39.9 µM.

For the compound `N=C(N)SCc1ccc2c(c1)Sc1ccccc1O2`, the TGI is 21.7 µM.

As to `CO[C@H]1/C=C(/C)CCC[C@H](C)[C@H](O)[C@@H](C)C(=O)C(C)(C)[C@@H](O)CC(=O)O[C@@H]1/C(C)=C/c1csc(C)n1`, the GI50 is below 0.0128 µM and the TGI is above 100 µM.

In the case of `CCC1(CC)C(=O)NN(C(=O)c2ccccc2)C1=O`, the TGI was above 100 µM.

Consider `CC(=O)Nc1nc(C#N)[nH]c1C#N`, for which the TGI is above 100 µM.

In the case of `CS(=O)c1ncc2c(n1)-c1ccccc1OC2` (configuration not stated), the TGI was above 100 µM.

Compound `CN(C)c1ccc(C(=N/N=C2\C(=O)Nc3ccccc32)c2ccc(N(C)C)cc2)cc1` registered a TGI of 18.7 µM.

`CCCC(=O)OC1CC(n2cc(F)c(=O)[nH]c2=O)OC1COP(=O)(OCC(Cl)(Cl)Cl)OCC(Cl)(Cl)Cl` (configuration not stated) displayed a TGI above 100 µM.

Regarding `CC1=C[C@@H]2Cc3nc4cc(Cl)ccc4c(N)c3[C@H](C1)C2`, the TGI stood at 24.3 µM.

Compound `O=[N+]([O-])C(/C=C(\Cl)n1nnc2ccccc21)=C(/Cl)n1nnc2ccccc21` registered a TGI above 100 µM.

Compound `CSC(=S)N(C)C` displayed a TGI above 100 µM.

The compound `COc1ccc2c(C)cc(=O)oc2c1OC` yielded a TGI above 100 µM.

`CN(C)c1ccc(S(=O)Nc2ccccc2)cc1` (configuration not stated): the TGI was above 100 µM.

With `C=CCSc1nnc2cc(CN3CCCC3)c(-c3ccc(Cl)cc3)nn12`, the TGI is 45.1 µM.

Consider `Cc1cn(C2CC(O)C(CO)O2)c(=O)[nH]c1=O` (configuration not stated), for which the TGI was above 5000 µM.

In turn, `CSC(=S)N/N=C(\C)c1ccc(S(=O)(=O)N(C)c2ccccc2)cc1` displayed a TGI above 100 µM.

Compound `CCNC(=O)Cc1nc2c(N)ncnc2n1C1OC(CO)C(O)C1O` (configuration not stated) came in with a TGI above 100 µM.

`Cc1nc(N)c(N2CCN([N+](=O)[O-])CC2)c(=O)[nH]1` gave a TGI above 100 µM.

Compound `N#CC12C(=O)N=C(N)C1(C#N)C(c1ccco1)NC1=C2CCCC1` (configuration not stated) displayed a TGI above 100 µM.

For `CCN(CC)CCN(C(=Nc1ccccc1)N1CCOCC1)c1ccccc1`, the TGI was above 100 µM.

Another assay concerns MOLT-4 leukemia. Kind of assay: inhibition of tumour cell growth, NCI panel, 48 h.
`CC1(C)CCCC2OC2CCC(C)(C)C1=O` (configuration not stated): the TGI was above 100 µM.

`O=C1NCC2(CCN(CCCC3(c4ccc(F)cc4)OCCO3)CC2)N1c1ccccc1` yielded a TGI above 100 µM.

Turning to `COc1ccc2c(c1)/C(=C\c1c(Cl)nc3sc(C)cn13)C(=O)N2`, the TGI stood at 8.41 µM.

The compound `O=C1c2ccccc2-c2c1c(-c1ccc(F)cc1)nc1ccc3ccccc3c21` came in with a TGI above 100 µM.

The compound `O=C(/C=C/c1ccc2c(c1)OCO2)CC(=O)C(=O)c1c[nH]c2ccccc12` gave a TGI above 100 µM.

The compound `O=C(Nc1nccs1)c1c(O)nc2sccn2c1=O` gave a TGI above 10 µM.

`O=c1[nH]c(=O)n(C2OC(CO)C(O)C2O)c2nc(-c3ccc(-c4ccccc4)cc3)cnc12` (configuration not stated) had a TGI above 100 µM.

Compound `O=C1NCCN1/N=C/c1c(Cl)n(-c2ccccc2)c2ccccc12` registered a TGI above 100 µM.

The compound `N=C(N)SCc1ccc2c(c1)Sc1ccccc1O2` had a TGI above 93.3 µM.

For `CO[C@H]1/C=C(/C)CCC[C@H](C)[C@H](O)[C@@H](C)C(=O)C(C)(C)[C@@H](O)CC(=O)O[C@@H]1/C(C)=C/c1csc(C)n1`, the GI50 was 0.0359 µM and the TGI was above 100 µM.

In the case of `CCC1(CC)C(=O)NN(C(=O)c2ccccc2)C1=O`, the TGI is above 100 µM.
